The source of these data is US20050249808A1, “NSAIDs compositions containing tartaric acid” (priority 2001, published 2005).

For data set [1] the following is noted: cited from earlier work; for AUC0-2h: 600 mg ibuprofen dose.
The conditions of data set [2]: parts of drug dissolving in 10,000 parts of water; cited from earlier work.
The nature of data set [3]: Oral bioavailability of ibuprofen crushed tablets in control rats. The following applies: male, Sprague-Dawley, rat, plasma, 20 mg/kg, oral 20 mg/kg ibuprofen as crushed tablets, read-out: AUC (0-8). The data set is classed as in vivo. The procedure: The animal models are Adult male Sprague-Dawley rats with body weight of 250-300 g, and which were cared for in accordance with the principles and guidelines of the Canadian Council of Animal Care. All rats were catheterized in the right jugular vein for sample collection.
The tablets were crushed gently and small pieces were administered into the stomach via a plastic tube followed by 0.5 mL tap water. […] They had free access to water.

Where two headings read alike, the source gives them in different places.

For `CC(C)Cc1ccc([C@@H](C)C(=O)O)cc1` [R-ibuprofen, R(−)-2-(4-isobutylphenyl)propionic acid], the AUC0-2h was 5800 ± 7100 ng·h/mL in data set [1] (after dental extraction) and 14400 ± 9500 ng·h/mL in data set [1] (before dental extraction).
Regarding `CC(C)Cc1ccc([C@H](C)C(=O)O)cc1` [S-ibuprofen, S(+)-2-(4-isobutylphenyl)propionic acid], the AUC0-2h in data set [1] (after dental extraction) was 7200 ± 5500 ng·h/mL; in data set [1] (before dental extraction), 14200 ± 6100 ng·h/mL.
On to `CC(C)Cc1ccc(C(C)C(=O)O)cc1` (racemic) [ibuprofen, (±)-2-(4-Isobutylphenyl)propionic acid], for which the solubility in water entry in data set [2] is “less than 1 part”. Moreover, the “change in mean time to peak concentration caused by surgery” value in data set [1] (200 mg and 600 mg doses, dental surgery) was “two hour delay”. The “AUC0-6h, effect of surgery” value in data set [1] (dental surgery) is given as “significantly reduced”. Besides, the AUC(0-t) in data set [3] was 139000 ng·h/mL.
